According to patent US8999374B2, “Method of inhibiting salmonella in livestock and poultry” (priority 2002, dated 2015):

System: Salmonella enteritidis KTE-61 strain
Experiment: Inhibition test of salmonella/yeast agglutination
Format: cell-based
Description: Inhibition tests of salmonella agglutination were carried out on various saccharides as follows. […] Preliminary test was carried out for observing by stereoscopic microscope (OLYMPUS Co., Ltd) that agglutination occurs in this liquid mixture.
Next, in a similar manner to the aforementioned preliminary test, with the use of aqueous solution of saccharide where the aforementioned taken β-1,4-mannobiose and a mannose reagent (D-Mannose; Wako Pure Chemical Industries, Ltd.) were used instead of distilled water, the minimum concentration for inhibiting agglutination of liquid mixture (the minimum concentration for inhibiting agglutination) was obtained by varying the concentration, respectively. The actual minimum concentration for inhibiting the agglutination in liquid mixture and the relative concentration (ratio of concentration) when the minimum concentration for inhibiting agglutination of mannose is set 1 are shown in table 1.

## OC[C@H]1O[C@@H](O[C@H]2[C@H](O)[C@H](O)C(O)O[C@@H]2CO)[C@@H](O)[C@@H](O)[C@@H]1O (stereo partly drawn) [Mannobiose, β-1,4-mannobiose]
Salmonella enteritidis KTE-61 with yeast Candida albicans KI-102001, concentration in liquid mixture
  minimum concentration for inhibiting agglutination, Actual Concentration: 1290 µg/mL
Minimum concentration for inhibiting agglutination, mannose set to 1
  Relative Concentration (Based on Mannose): 2.173
